In patent publication US20130252816A1, “HERBICIDAL COMPOSITION AND USE THEREOF” (Syngenta Crop Protection LLC, priority 2010, published 2013):

Experiments:
Format in all cases: in vivo
[1] = test system: Poa annua; experiment: Example 1: adjuvants alone, visual % damage, pots in glasshouse
Experimental: (§1) The effect of different adjuvants (see Table 1 below) on the growth of broadleaf weed and grass species was investigated and compared to untreated (water only) control weeds.
(§2) Plates, each with 48 pots measuring 2.7 cm diameter and 5 cm deep, were filled with TKS1 growing media (Floragard, Germany). Seeds of Taraxacum officinale, Stellaria media or Poa annua were sown on the surface (10 to 20 per pot). Plants were grown in glasshouse at a temperature of 18 to 20° C. and at 60% relative humidity.
(§3) Plants were treated 15 (Stellaria, Poa) and 34 (Taraxacum) days after sowing with 60 μl of a 1.25, 2.5, 5 and 10% (w/v) solution of adjuvant using a hand airbrush.
(§4) Visual assessment of the percentage damage to the plant was carried out 1 day and 6 days from application.
(§5) Damage was assessed as wilting, desiccation or any other kind of visual injury in comparison to the untreated control (water only).

[2] = test system: Stellaria media; experiment: as above
Experimental: as §1, §2, §3, §4, §5

[3] = test system: Taraxacum officinale; experiment: as above
Experimental: as §1, §2, §3, §4, §5

[4] = test system: Poa annua; experiment: Example 2: alcohol ethoxylate adjuvants without glyphosate, visual % damage, tracksprayer 300 l/ha
From the text: (§6) The effect of different types of alcohol ethoxylate (branched—Genapol X-series, and unbranched—Genapol O-series, differing degrees of ethoxylation, see Table 3 below for more details), on unwanted vegetation (broadleaf weed and grass species), in the absence of glyphosate, was investigated and compared to untreated (water only) control weeds.
(§7) Troughs (measuring 16 cm by 13 cm by 5 cm) were filled with local field soil. Seeds of Veronica persica, Stellaria media, Trifolium repens and Poa annua were sown 24 days before application of test samples. Plants were grown in the glasshouse at 18 to 20° C. and 60% relative humidity. Application of alcohol ethoxylate test samples was carried out using a tracksprayer, spraying at a rate of 300 l/ha. Plants were kept in glasshouse and visual assessment of the estimated percentage damage to the plant was carried out 1, 7, and 14 days from application.
as §5

[5] = test system: Stellaria media; experiment: as above
From the text: as §6, §7, §5

[6] = test system: Trifolium repens; experiment: as above
From the text: as §6, §7, §5

[7] = test system: Veronica persica; experiment: as above
From the text: as §6, §7, §5

Oleyl alcohol polyglycol ether with 5 moles of ethoxylation [GenapolO050]
15%: avg % damage 6 DAA Stellaria media ([2]; adjuvant 2.5% w/v) | avg % damage 1 DAA Stellaria media ([2]; adjuvant 5% w/v)
5%: avg % damage 6 DAA Poa annua ([1]; adjuvant 1.25% w/v) | avg % damage 6 DAA Poa annua ([1]; adjuvant 2.5% w/v) | mean % damage 7 daa Poa annua ([4]; adjuvant 1.5% w/v) | mean % damage 7 daa Poa annua ([4]; adjuvant 2% w/v) | mean % damage 14 daa Poa annua ([4]; adjuvant 2% w/v) | mean % damage 7 daa Poa annua ([4]; adjuvant 2.5% w/v) | mean % damage 14 daa Poa annua ([4]; adjuvant 2.5% w/v) | mean % damage 7 daa Stellaria media ([5]; adjuvant 1% w/v) | mean % damage 7 daa Stellaria media ([5]; adjuvant 1.5% w/v) | mean % damage 14 daa Stellaria media ([5]; adjuvant 1.5% w/v) | mean % damage 14 daa Stellaria media ([5]; adjuvant 2% w/v) | mean % damage 7 daa Trifolium repens ([6]; adjuvant 1% w/v) | mean % damage 7 daa Trifolium repens ([6]; adjuvant 1.5% w/v) | mean % damage 7 daa Trifolium repens ([6]; adjuvant 2% w/v) | mean % damage 7 daa Trifolium repens ([6]; adjuvant 2.5% w/v) | mean % damage 7 daa Veronica persica ([7]; adjuvant 1% w/v) | mean % damage 14 daa Veronica persica ([7]; adjuvant 1% w/v)
0%: avg % damage 1 DAA Poa annua ([1]; adjuvant 1.25% w/v) | avg % damage 1 DAA Poa annua ([1]; adjuvant 2.5% w/v) | avg % damage 1 DAA Poa annua ([1]; adjuvant 5% w/v) | avg % damage 1 DAA Poa annua ([1]; adjuvant 10% w/v) | avg % damage 1 DAA Stellaria media ([2]; adjuvant 1.25% w/v) | avg % damage 6 DAA Stellaria media ([2]; adjuvant 1.25% w/v) | avg % damage 6 DAA Taraxacum officinale ([3]; adjuvant 1.25% w/v) | avg % damage 6 DAA Taraxacum officinale ([3]; adjuvant 10% w/v) | mean % damage 1 daa Poa annua ([4]; adjuvant 1% w/v) | mean % damage 14 daa Poa annua ([4]; adjuvant 1% w/v) | mean % damage 1 daa Poa annua ([4]; adjuvant 1.5% w/v) | mean % damage 14 daa Poa annua ([4]; adjuvant 1.5% w/v) | mean % damage 1 daa Poa annua ([4]; adjuvant 2% w/v) | mean % damage 1 daa Poa annua ([4]; adjuvant 2.5% w/v) | mean % damage 1 daa Stellaria media ([5]; adjuvant 1% w/v) | mean % damage 14 daa Stellaria media ([5]; adjuvant 1% w/v) | mean % damage 1 daa Stellaria media ([5]; adjuvant 1.5% w/v) | mean % damage 1 daa Stellaria media ([5]; adjuvant 2% w/v) | mean % damage 1 daa Stellaria media ([5]; adjuvant 2.5% w/v) | mean % damage 1 daa Trifolium repens ([6]; adjuvant 1% w/v) | mean % damage 14 daa Trifolium repens ([6]; adjuvant 1% w/v) | mean % damage 1 daa Trifolium repens ([6]; adjuvant 1.5% w/v) | mean % damage 14 daa Trifolium repens ([6]; adjuvant 1.5% w/v) | mean % damage 1 daa Trifolium repens ([6]; adjuvant 2% w/v) | mean % damage 14 daa Trifolium repens ([6]; adjuvant 2% w/v) | mean % damage 1 daa Trifolium repens ([6]; adjuvant 2.5% w/v) | mean % damage 14 daa Trifolium repens ([6]; adjuvant 2.5% w/v) | mean % damage 1 daa Veronica persica ([7]; adjuvant 1% w/v) | mean % damage 1 daa Veronica persica ([7]; adjuvant 1.5% w/v) | mean % damage 1 daa Veronica persica ([7]; adjuvant 2% w/v) | mean % damage 1 daa Veronica persica ([7]; adjuvant 2.5% w/v)
25%: avg % damage 6 DAA Stellaria media ([2]; adjuvant 5% w/v) | avg % damage 6 DAA Stellaria media ([2]; adjuvant 10% w/v)
10%: avg % damage 6 DAA Poa annua ([1]; adjuvant 5% w/v) | avg % damage 6 DAA Poa annua ([1]; adjuvant 10% w/v) | avg % damage 1 DAA Stellaria media ([2]; adjuvant 2.5% w/v) | avg % damage 1 DAA Taraxacum officinale ([3]; adjuvant 1.25% w/v) | avg % damage 1 DAA Taraxacum officinale ([3]; adjuvant 2.5% w/v) | avg % damage 1 DAA Taraxacum officinale ([3]; adjuvant 5% w/v) | avg % damage 1 DAA Taraxacum officinale ([3]; adjuvant 10% w/v) | mean % damage 7 daa Poa annua ([4]; adjuvant 1% w/v) | mean % damage 7 daa Stellaria media ([5]; adjuvant 2% w/v) | mean % damage 7 daa Stellaria media ([5]; adjuvant 2.5% w/v) | mean % damage 14 daa Stellaria media ([5]; adjuvant 2.5% w/v) | mean % damage 7 daa Veronica persica ([7]; adjuvant 1.5% w/v) | mean % damage 7 daa Veronica persica ([7]; adjuvant 2% w/v)
3%: avg % damage 6 DAA Taraxacum officinale ([3]; adjuvant 2.5% w/v)
30%: avg % damage 1 DAA Stellaria media ([2]; adjuvant 10% w/v)
20%: avg % damage 6 DAA Taraxacum officinale ([3]; adjuvant 5% w/v) | mean % damage 14 daa Veronica persica ([7]; adjuvant 1.5% w/v) | mean % damage 14 daa Veronica persica ([7]; adjuvant 2% w/v) | mean % damage 7 daa Veronica persica ([7]; adjuvant 2.5% w/v) | mean % damage 14 daa Veronica persica ([7]; adjuvant 2.5% w/v)

Oleyl alcohol polyglycol ether with 20 moles of ethoxylation [GenapolO200]
3%: avg % damage 6 DAA Taraxacum officinale ([3]; adjuvant 1.25% w/v)
10%: avg % damage 1 DAA Taraxacum officinale ([3]; adjuvant 10% w/v)
5%: avg % damage 6 DAA Stellaria media ([2]; adjuvant 2.5% w/v) | avg % damage 6 DAA Stellaria media ([2]; adjuvant 5% w/v) | avg % damage 6 DAA Taraxacum officinale ([3]; adjuvant 5% w/v)
30%: avg % damage 6 DAA Stellaria media ([2]; adjuvant 10% w/v)
0%: avg % damage 1 DAA Poa annua ([1]; adjuvant 1.25% w/v) | avg % damage 6 DAA Poa annua ([1]; adjuvant 1.25% w/v) | avg % damage 1 DAA Poa annua ([1]; adjuvant 2.5% w/v) | avg % damage 6 DAA Poa annua ([1]; adjuvant 2.5% w/v) | avg % damage 1 DAA Poa annua ([1]; adjuvant 5% w/v) | avg % damage 6 DAA Poa annua ([1]; adjuvant 5% w/v) | avg % damage 1 DAA Poa annua ([1]; adjuvant 10% w/v) | avg % damage 6 DAA Poa annua ([1]; adjuvant 10% w/v) | avg % damage 1 DAA Stellaria media ([2]; adjuvant 1.25% w/v) | avg % damage 6 DAA Stellaria media ([2]; adjuvant 1.25% w/v) | avg % damage 1 DAA Stellaria media ([2]; adjuvant 2.5% w/v) | avg % damage 1 DAA Stellaria media ([2]; adjuvant 5% w/v) | avg % damage 1 DAA Taraxacum officinale ([3]; adjuvant 1.25% w/v) | avg % damage 1 DAA Taraxacum officinale ([3]; adjuvant 2.5% w/v) | avg % damage 6 DAA Taraxacum officinale ([3]; adjuvant 2.5% w/v) | avg % damage 1 DAA Taraxacum officinale ([3]; adjuvant 5% w/v) | avg % damage 6 DAA Taraxacum officinale ([3]; adjuvant 10% w/v)
15%: avg % damage 1 DAA Stellaria media ([2]; adjuvant 10% w/v)

Tri-sec-butylphenol polyglycol ether with 6 Moles of ethoxylation [SAPOGENAT T 060]
0%: avg % damage 1 DAA Poa annua ([1]; adjuvant 1.25% w/v) | avg % damage 1 DAA Poa annua ([1]; adjuvant 2.5% w/v) | avg % damage 1 DAA Poa annua ([1]; adjuvant 5% w/v) | avg % damage 1 DAA Poa annua ([1]; adjuvant 10% w/v) | avg % damage 1 DAA Stellaria media ([2]; adjuvant 1.25% w/v) | avg % damage 6 DAA Stellaria media ([2]; adjuvant 1.25% w/v) | avg % damage 1 DAA Stellaria media ([2]; adjuvant 2.5% w/v) | avg % damage 6 DAA Stellaria media ([2]; adjuvant 2.5% w/v) | avg % damage 1 DAA Stellaria media ([2]; adjuvant 5% w/v) | avg % damage 1 DAA Stellaria media ([2]; adjuvant 10% w/v) | avg % damage 1 DAA Taraxacum officinale ([3]; adjuvant 1.25% w/v) | avg % damage 6 DAA Taraxacum officinale ([3]; adjuvant 1.25% w/v) | avg % damage 1 DAA Taraxacum officinale ([3]; adjuvant 2.5% w/v) | avg % damage 6 DAA Taraxacum officinale ([3]; adjuvant 2.5% w/v) | avg % damage 1 DAA Taraxacum officinale ([3]; adjuvant 5% w/v) | avg % damage 6 DAA Taraxacum officinale ([3]; adjuvant 5% w/v) | avg % damage 1 DAA Taraxacum officinale ([3]; adjuvant 10% w/v) | avg % damage 6 DAA Taraxacum officinale ([3]; adjuvant 10% w/v)
20%: avg % damage 6 DAA Stellaria media ([2]; adjuvant 5% w/v) | avg % damage 6 DAA Stellaria media ([2]; adjuvant 10% w/v)
25%: avg % damage 6 DAA Poa annua ([1]; adjuvant 5% w/v)
5%: avg % damage 6 DAA Poa annua ([1]; adjuvant 1.25% w/v) | avg % damage 6 DAA Poa annua ([1]; adjuvant 2.5% w/v)
35%: avg % damage 6 DAA Poa annua ([1]; adjuvant 10% w/v)
